The values below come from patent US11851681B2, “Cell preparation method” (KYOTO PREFECTURAL PUBLIC UNIVERSITY CORPORATION, priority 2015, dated 2023).

Entries after “also recorded” stand apart in the source; their conditions may differ.

Assay type in all cases: cell-based
Assay [1] relates to human dermal fibroblasts; HDFs. Put plainly: Real-time RT-PCR of Sox9 and Aggrican in cartilage induction medium, Example 8. The following applies: ALK5 inhibitor II 2 μM, Cyclic Pifithrin-α 5 μM, day 18, FIG. 8. On the procedure: The concentrations of the compounds are as follows: • Cyclic Pifithrin-α: 5 μM • ALK5 inhibitor II: 2 μM.
For orientation: In qPCR the cycle at which signal appears reflects the starting amount.

Assay [2] relates to Human normal skin-derived fibroblasts (HDFs). As to the kind of experiment: Real-time RT-PCR of UCP1, four inhibitors, Example 39. The following applies: for conversion of fibroblast to brown adipocyte, UCP1 mRNA: 4 μM, 8 μM, 12 μM or 16 μM in adipocyte induction medium Day 1 to Day 8, then compound-free to day 14, FIG. 43. The protocol:
The addition concentration of the compound was 4 μM, 8 μM, 12 μM or 16 μM. […] Thereafter, in Day 9-Day 14, culturing was performed in a medium free of ALK5 inhibitor II, LY2157299, SB431542, D4476.

In assay [3] the test system is human dermal fibroblasts; HDFs. Put plainly: Real-time PCR of AdipoQ, FABP4, PPAR-γ, four inhibitors with Rosiglitazone, Example 50. The following applies: WA medium added with 1 μM Rosiglitazone and 16 μM compound; day 12. An excerpt: On day 12, RNA was recovered from the cells and, in the same manner as in Example 47, mRNA of AdipoQ, FABP4 (mature adipocyte marker), and PPAR-γ (preadipocyte marker) was quantified.

The test system of assay [4] is Human normal skin-derived fibroblasts (HDFs). Put plainly: Immunostaining of UCP1, four inhibitors, Example 40. The following applies: LY2157299 8 μM, SB431542 4 μM, D4476 4 μM, Day 1 to Day 8, day 14, FIG. 44; for conversion of fibroblast to brown adipocyte, UCP1 protein: ALK5 inhibitor II 4 μM; for staining with anti-UCP1 antibody: groups 3-6: ALK5 inhibitor II 4 μM.
Experimental: Human normal skin-derived fibroblasts (HDFs) were suspended in a general medium (DMEM added with 10% FBS). […] The adipocyte induction medium is DMEM added with 1 nM T3, 1 μM Rosiglitazone, 0.5 mM 3-isobutyl-1-methylxanthine (IBMX), 0.5 μM dexamethasone, 1 μg/mL Insulin and 10% FBS. Once every 2 days, the culture medium was exchanged with a fresh one, and culturing was performed from Day 1 to Day 8. Thereafter, from Day 9 to Day 14, the cells were cultured in an adipocyte induction medium free of ALK5 inhibitor II, LY2157299, SB431542, D4476. On day 14, the culture medium was removed by suction from each well, and washed with PBS(−). After fixing with 4% para-formaldehyde, the well was washed with PBS (−), Permanent wave Buffer (0.2% Triton-X addition PBS) was added and the well was incubated for 15 min. After washing 3 times with PBS(−), Blocking One was added, and the mixture was incubated at room temperature for 60 min. Anti-UCP-1 antibody (RD MAB6158) was added and the mixture was reacted for 2 hrs at room temperature, and washed 3 times with Wash buffer. CF488-conjugated anti-mouse Ig antibody (Biotum 20014) was added and the mixture was reacted for 2 hrs at room temperature, and washed 3 times with PBS(−). After nuclear staining with SlowFade Gold antifade reagent with DAPI manufactured by Lifetechnology, the cells were photographed with a fluorescence microscope at ×100 magnification.

For assay [5], the system named is Human Epidermal Keratinocyte; NHEK (AD). As to the kind of experiment: Real-time RT-PCR of UCP1 and CIDEA, keratinocyte to brown adipocyte, Example 43. To be noted: K-adipocyte induction medium; ALK5 inhibitor II 4 μM or LY2157299 8 μM, Day 1 to Day 8; day 14; FIG. 47.
Experimental: Normal human epidermal keratinocyte (Human Epidermal Keratinocyte; NHEK (AD)) were suspended in a serum-free liquid medium for normal human epidermal keratinocyte proliferation (HuMedia-KG2; manufactured by Kurabo).
The K-adipocyte induction medium is HuMedia-KG2 added with 1 nM T3, 1 μM Rosiglitazone, 0.5 mM 3-isobutyl-1-methylxanthine (IBMX), 0.5 μM dexamethasone, and 1 μg/mL Insulin.
Once every 2 days, the culture medium was exchanged with a fresh one, and culturing was performed from Day 1 to Day 8. Thereafter, from Day 9 to Day 14, the cells were cultured in a medium free of ALK5 inhibitor II or LY2157299. On day 14, the culture medium was removed by suction from each well, washed with PBS(−) and total RNA was extracted from the cells by using RNA easy Mini Kit manufactured by Qiagen. cDNA was synthesized from the RNA by using Rever Tra Ace qPCR RT Master Mix. This cDNA was admixed with Real-time PCR Master Mix, primers specific to UCP-1 gene, CIDEA gene or β actin gene and Taqman probe. qRT-PCR was performed using AB7300 Real-time PCR system. The mRNA level of UCP1 gene and CIDEA gene was quantified as a ratio to β-actin gene mRNA level, and calculated with the value of fibroblast cultured in the general medium as 1.
Assay [6] concerns human dermal fibroblasts; HDFs. Put plainly: Bodipy staining quantification in WA medium, four inhibitors, Example 49. The following applies: 16 μM compound and 1 μM Rosiglitazone, day 12, FIG. 53.
The test system of assay [7] is Human normal skin-derived fibroblasts (HDFs). Put plainly: Real-time RT-PCR of UCP1, CIDEA, KCNK3, Example 41. The following applies: ALK5 inhibitor II or LY2157299 (8 μM), Day 1 to Day 8; day 14; FIG. 45.
Experimental: Human normal skin-derived fibroblasts (HDFs) were suspended in a general medium (DMEM added with 10% FBS). […] The adipocyte induction medium is DMEM added with 1 nM T3, 1 μM Rosiglitazone, 0.5 mM 3-isobutyl-1-methylxanthine (IBMX), 0.5 μM dexamethasone, 1 μg/mL Insulin and 10% FBS. Once every 2 days, the culture medium was exchanged with a fresh one, and culturing was performed from Day 1 to Day 8. Thereafter, from Day 9 to Day 14, the cells were cultured in an adipocyte induction medium free of ALK5 inhibitor II or LY2157299. On day 14, the culture medium was removed by suction from each well, washed with PBS(−) and total RNA was extracted from the cells by using RNA easy Mini Kit manufactured by Qiagen. cDNA was synthesized from the RNA by using Rever Tra Ace qPCR RT Master Mix. This cDNA was admixed with Real-time PCR Master Mix, primers specific to UCP-1 gene, CIDEA gene, KCNK3 gene or β actin gene and Taqman probe. qRT-PCR was performed using AB7300 Real-time PCR system. The mRNA level of UCP1 gene was quantified as a ratio to β-actin gene mRNA, and calculated with the value of fibroblast cultured in the general medium as 1.
Assay [8] has as its system human dermal fibroblasts; HDFs. Put plainly: Bodipy staining in WA medium, four inhibitors, Example 48. To be noted: day 12, FIG. 52; for lipid droplets stained with Bodipy, inhibitor alone: WA medium added with 16 μM compound alone; for lipid droplets stained with Bodipy / conversion to white adipocyte, inhibitor and Rosiglitazone: WA medium added with 16 μM compound and 1 μM Rosiglitazone.

In assay [9] the test system is human dermal fibroblasts; HDFs. As to the kind of experiment: BODIPY staining and fluorescence intensity, Example 15. To be noted: compound 2 μM in addition to T3 1 nM and Rosiglitazone 1 μM; day 14; FIG. 15A, 15B. On the procedure:
The concentrations of the additives are as follows: • T3: 1 nM • Rosiglitazone: 1 μM • D4476: 2 μM • SB431541: 2 μM • ALK5 inhibitor II: 2 μM.
The cells were fixed with 4% para-formaldehyde, washed with PBS(−), reacted for 5 min with BODIPY 493/503 (Invitrogen)/PBS solution at room temperature and washed 3 times with PBS. The cells were photographed with a fluorescence microscope at ×200 magnification and the fluorescence intensity was measured.

The subject of assay [10] is human dermal fibroblasts; HDFs. Put plainly: Alizarin Red S staining (staining figure), fibroblast to osteoblast, Example 1. To be noted: each compound 2 μM in calcification induction medium; day 24; FIG. 1. The protocol:
It was washed 3 times with sterile distilled water. […] The well after staining was washed with sterile distilled water and photographed.
The concentrations of the compounds are as follows: • D4476: 2 μM • ALK5 inhibitor II: 2 μM • SB431542: 2 μM.

Assay [11] concerns human dermal fibroblasts; HDFs. As to the kind of experiment: Real-time RT-PCR of Osteocalcin and Alkaline Phosphatase, Example 3. To be noted: each compound 2 μM in calcification induction medium; day 24; FIG. 3. On the procedure:
(§1) The concentrations of the compounds are as follows: • D4476: 2 μM • SB431542: 2 μM • ALK5 inhibitor II: 2 μM.

Assay [12] deals with human dermal fibroblasts; HDFs. Put plainly: Alizarin Red S staining and absorbance, compound panel, Examples 29-30. To be noted: calcification induction medium; compounds 2 μM (Pifthrin-α 5 μM, DZnep 50 nM); day 28; FIG. 33, 34. On the procedure: The compounds added to the medium and the concentrations thereof are as follows. • I-BET151: 2 μM • Pifthrin-α: 5 μM • PD0325901: 2 μM • 2-Me-5HT: 2 μM • CX4945: 2 μM • CHIR99021: 2 μM • Forskolin: 2 μM • DZnep: 50 nM • D4476: 2 μM • SB431542: 2 μM • ALK5 i II: 2 μM.
In the experiment of Example 29, the solution after staining with the Alizarin Red S staining solution was collected in a 96 well plate and the absorbance (OD 550 nm) was measured with an absorption spectrometer.

Assay [13] has as its system human dermal fibroblasts; HDFs. As to the kind of experiment: Alizarin Red S staining (absorbance OD 550 nm), Example 2. To be noted: each compound 2 μM in calcification induction medium; day 24; FIG. 2. The protocol:
as §1

In assay [14] the test system is Human normal skin-derived fibroblasts (HDFs). Put plainly: Alizarin Red S and ALP staining, absorbance, TGF-β pathway inhibitor panel, Examples 31-32. The following applies: description, conditions not given. On the procedure:
On day 21, the culture medium was removed from a part of the well, washed with PBS(-), and fixed with a fixative. It was washed 3 times with sterile distilled water. […] In the experiment of Example 31, the solution after staining with the Alizarin Red S staining solution was collected in a 96 well plate and the absorbance (OD 550 nm) was measured with an absorption spectrometer.

The subject of assay [15] is human dermal fibroblasts; HDFs. Put plainly: Oil Red O staining, fibroblast to brown adipocyte, Example 12. To be noted: compound 2 μM in addition to T3 1 nM and Rosiglitazone 1 μM, adipocyte induction medium; day 14; FIG. 12. On the procedure:
(§2) The concentrations of the additives are as follows: • T3: 1 nM • Rosiglitazone: 1 μM • D4476: 2 μM • Pifithrin alpha [p53 inhibitor]: 5 μM • SB431542: 2 μM • ALK5 Inhibitor II: 2 μM.
Then, the cells were washed with sterile distilled water and photographed with a phase contrast microscope at ×100 magnification.

In assay [16] the test system is human dermal fibroblasts; HDFs. As to the kind of experiment: Real-time RT-PCR of AdipoQ, Example 14. To be noted: D4476, SB431542, ALK5 Inhibitor II 2 μM, PD0325901 1 μM, in addition to T3 and Rosiglitazone; day 14; FIG. 14. The protocol:
The concentrations of the additives are as follows: • T3: 1 nM • Rosiglitazone: 1 μM • D4476: 2 μM. • Pifithrin alpha [p53 inhibitor]: 5 μM • PD0325901: 1 μM • SB431542: 2 μM • ALK5 Inhibitor II: 2 μM.

Assay [17] concerns human dermal fibroblasts; HDFs. Put plainly: Real-time RT-PCR of CIDEA, Example 13. The following applies: compound 2 μM in addition to T3 1 nM and Rosiglitazone 1 μM, adipocyte induction medium; day 14; FIG. 13. On the procedure: as §2

With `Cc1ccc(-c2cn3c4c(sc3n2)CCCC4)cc1` [Cyclic Pifithrin-α], the “conversion of fibroblast to chondrocyte, Sox9 and Aggrican mRNA” value in assay [1] is reported as “does not promote conversion of fibroblast to chondrocyte”.

On to `Cc1cccc(-c2nn3c(c2-c2ccnc4ccc(C(N)=O)cc24)CCC3)n1` [LY2157299, 4-[5,6-dihydro-2-(6-methyl-2-pyridinyl)-4H-pyrrolo[1,2-b]pyrazol-3-yl]-6-quinolinecarboxamide], for which the “conversion of fibroblast to brown adipocyte, UCP1 mRNA” value in assay [2] is on record as “converted fibroblast to brown adipocyte strongly expressing UCP1 gene; also recorded: secondly”. In addition, the “efficiency in converting fibroblast to brown adipocyte (summary statement)” value in [2] (description, conditions not given) is listed as “highly efficient in converting fibroblast to brown adipocyte”. In addition, the “conversion of human fibroblast to white adipocyte (mRNA markers)” value in [3] is given as “converted human fibroblast to white adipocyte”. Further, in [4], the “conversion of fibroblast to brown adipocyte, UCP1 protein” value is on record as “converted fibroblast to brown adipocyte expressing UCP1 protein; also recorded: secondly” and the “staining with anti-UCP1 antibody” value was “many cells were stained with anti-UCP1 antibody; also recorded: the second highest”. Moreover, in [5], the “conversion of epidermal keratinocyte to brown adipocyte, UCP1 and CIDEA mRNA” value is “converted normal human epidermal keratinocyte to brown adipocyte expressing UCP1 gene and CIDEA gene”. For the same molecule, the “fat accumulation (BODIPY) / conversion to white adipocyte, co-addition of Rosiglitazone” value in assay [6] is given as “more strongly induced fat accumulation than by the addition of Rosiglitazone alone”. In assay [7], the “conversion of fibroblast to brown adipocyte, UCP1, CIDEA and KCNK3 mRNA” value is “converted fibroblast to brown adipocyte expressing UCP1 gene, CIDEA gene and KCNK3 gene”. Moreover, in assay [8], the “lipid droplets stained with Bodipy, inhibitor alone” value is on record as “only a few cells contained lipid droplets stained with Bodipy”; the “lipid droplets stained with Bodipy / conversion to white adipocyte, inhibitor and Rosiglitazone” value is listed as “many cells were stained”.

For the molecule `NC(=O)c1ccc(-c2nc(-c3ccc4c(c3)OCO4)c(-c3ccccn3)[nH]2)cc1` [SB431542, 4-[4-(1,3-Benzodioxol-5-yl)-5-(pyridin-2-yl)-1H-imidazol-2-yl]benzamide], the “conversion of fibroblast to brown adipocytes, BODIPY staining and fluorescence intensity” value in assay [9] is given as “converted fibroblast to brown adipocytes having lipid droplets stained with BODIPY”. The “conversion of human fibroblast to osteoblast, Alizarin Red S staining (staining figure)” value in assay [10] was “converted to osteoblast having calcified is bone matrix production ability”. The “conversion of human fibroblast to osteoblast, Osteocalcin and Alkaline Phosphatase mRNA” value in [11] was “converted to osteoblast expressing osteocalcin and alkaline phosphatase gene”. In [12], the “conversion from fibroblast to osteoblast, Alizarin Red S staining and absorbance” value is “induce conversion from fibroblast to osteoblast”. Moreover, in assay [13], the “conversion of human fibroblast to osteoblast, Alizarin Red S staining (absorbance OD 550 nm)” value was “converted to osteoblast having calcified bone matrix production ability”. The “conversion of fibroblast to brown adipocyte, UCP1 mRNA” value in assay [2] is “converted fibroblast to brown adipocyte strongly expressing UCP1 gene”. Further, the “efficiency in converting fibroblast to osteoblast (summary statement)” value in [14] was “highly efficient in converting fibroblast to osteoblast”. Also, the “conversion of fibroblast to brown adipocyte, Oil Red O staining” value in [15] was “converted fibroblast to brown adipocyte”. Further, in assay [16], the “conversion of fibroblast to brown adipocytes, AdipoQ mRNA” value is given as “converted fibroblast to brown adipocytes expressing mRNA of AdipoQ gene”. Also, the “conversion of human fibroblast to white adipocyte (mRNA markers)” value in assay [3] was “converted human fibroblast to white adipocyte”. Further, in [4], the “conversion of fibroblast to brown adipocyte, UCP1 protein” value is “converted fibroblast to brown adipocyte expressing UCP1 protein” and the “staining with anti-UCP1 antibody” value is “many cells were stained with anti-UCP1 antibody”. In [6], the “fat accumulation (BODIPY) / conversion to white adipocyte, co-addition of Rosiglitazone” value was “more strongly induced fat accumulation than by the addition of Rosiglitazone alone”. The “conversion of fibroblast to brown adipocytes, CIDEA mRNA” value in assay [17] is “converted fibroblast to brown adipocytes expressing mRNA of CIDEA gene”. Also, in assay [8], the “lipid droplets stained with Bodipy, inhibitor alone” value was “only a few cells contained lipid droplets stained with Bodipy”; the “lipid droplets stained with Bodipy / conversion to white adipocyte, inhibitor and Rosiglitazone” value is reported as “many cells were stained”.
